# Test results reported in article PMC8533176, “1,5-Benzodiazepin-2(3H)-ones: In Vitro Evaluation as Antiparkinsonian Agents” (Antioxidants, 2021).
# Key:
# SH-SY5Y cells [1] = assay: Cytotoxicity, MTT assay, SH-SY5Y; format: cell-based; conditions: Homo sapiens, MTT, cytotoxicity, read-out: SH-SY5Y IC50
# How it was run: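 Cells treated with 5–200 µM compound (DMSO vehicle, four replicates) after overnight attachment. Viability read by MTT reduction (2 h, 37 °C, dark; formazan in DMSO, A570) relative to vehicle controls; IC50 from dose–response regression.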
# SH-SY5Y cells [2] = assay: Mitochondrial superoxide levels (MitoSOX); format: cell-based, human; conditions: H2O2 250 µM; compounds 24 h before
# Experimental: Mitochondrial superoxide levels were measured with MitoSOX red (3,8-phenanthridinediamine, 5-(60-triphenylphosphoniumhexyl)-5,6-dihydro-6-phenyl) from Molecular Probes (Thermo Fisher Scientific, 29851Willow Creek Road, Eugene, OR, USA). After SH-SY5Y cell treatment in 96-well culture black clear bottom plates, the medium was removed and cells were washed with PBS and afterward, MitoSOX red (final concentration of 5 µM) in 200 µL of PBS was added and incubated for 20 min at 37 °C. After incubation, the cells were washed with warm PBS buffer, and fluorescence was measured at 510 nm excitation/640 nm emission wavelengths in a Varioskan microplate reader (Thermo Fisher Scientific, Vantaa, Finland).
# [3] = ABTS radical scavenging assay; format: biochemical
# Experimental: The mixture was stored in the dark at room temperature for 16 h. […] All the compounds tested were dissolved in EtOH. […] The degree of decolorization was calculated as the percentage reduction of absorbance. […] Trolox was used as a reference antioxidant.
# SH-SY5Y cells [4] = assay: Neuroprotection in the 6-OHD neurotoxicity-induced model, MTT; format: cell-based, human; conditions: 6-OHD 250 µM 48 h; compounds 24 h before
# SH-SY5Y cells [5] = assay: Mitochondrial membrane potential (JC-1); format: cell-based, human; conditions: 400 µM H2O2 4 h; compounds 24 h before at different concentrations
# Experimental: The fluorescent dye 5,5′,6,6′-tetrachloro-1,1′,3,3′-tetraethylbenzimidazolylcarbocyanine iodide (JC-1) was used for measuring MMP [89]. A decrease in fluorescence intensity represents mitochondrial membrane depolarization. For fluorescence ratio detection under oxidative stress conditions, 96-well culture black clear bottom plates were seeded with 3 × 10^3 SH-SY5Y cells, and after 24-h incubation, they were treated with the test compound and left out for 24 h. Then, the cells were exposed to different H2O2 concentrations for 4 h. After the incubation period, the cells were washed twice with Hanks buffer and then stained with 5 µM JC-1 in culture media in the dark in a CO2 incubator at 37 °C for 20 min. At the end of the dye incubation period, cells were washed three times with Hanks buffer, and 200 µL of fresh buffer was added. Cells were analyzed with a Varioskan microplate reader. J-aggregate red fluorescence intensity was measured at λex = 535 nm and λem = 595 nm, while λem = 485 nm and λem = 535 nm was used for J-monomer green fluorescence. Results were expressed as the ratio of fluorescence intensity of J-aggregates to J-monomers. All the experiments were performed three times in quadruplicate for each compound concentration.
# SH-SY5Y cells [6] = assay: Calcein-AM cell viability assay under H2O2; format: cell-based, human; conditions: H2O2 250 µM 24 h; 5, 10, 20, and 40 µM; Figure 12
# Experimental: Calcein-AM is a fluorescence-based cell viability assay. Calcein-acetoxymethyl (AM) is a non-fluorescent compound that enters the cells where intracellular esterases hydrolyze the acetoxymethyl group. The fluorescent calcein is retained in the living cells, and it can be detected at λex = 495 and λem = 550 nm. After treatment, all the samples were washed with PBS and incubated with 2 μM calcein-AM for 30 min at 37 °C, 5% CO2, and protected from light. The fluorescence was measured in a Varioskan microplate reader (Thermo Fisher Scientific, Vantaa, Finland) with λex = 490 and λem = 520 nm filters. Cell viability was calculated from samples treated with 1% Triton X-100 for 30 min at 37 °C, 5% CO2.
# Calcein-AM is a membrane permeant, not a fluorescent compound. Only live cells with intact plasma membrane have esterases that hydrolyze the compound into the green fluorescent dye calcein, which is retained in the cytoplasm. The fluorescent signal obtained is proportional to the number of living cells in the sample. […] Microscopy images in Figure S3 show the neuroprotection activity observed with Calcein-AM for derivative 18.
smiles,measurement,setting,value
"O=C1CC(c2ccccc2)=Nc2ccccc2N1 [Compound 18, 4-Phenyl-1H-1,5-benzodiazepin-2(3H)-one]",IC50,SH-SY5Y cells [1],> 250 µM
same,Reduction in mitochondrial superoxide levels,SH-SY5Y cells [2],reduce mitochondrial superoxide levels in a dose-dependent manner
same,IC50,[3]; 30-min incubation,187 ± 15.2 µM
same,ABTS Assay TEAC50,[3]; Equivalent antioxidant capacity at Trolox 50 mM,0.36
same,ABTS Assay TEAC100,[3]; Equivalent antioxidant capacity at Trolox 100 mM,0.21
same,"Neuroprotection, cell viability (MTT), 6-OHD model",SH-SY5Y cells [4],significant neuroprotection
same,MMP recovery,SH-SY5Y cells [5],10–25%
same,"Neuroprotection, Calcein-AM cell counting",SH-SY5Y cells [6],statistically significant neuroprotectant activity
